Measurements published in patent US12588678B2, “Oxazoline compound, synthesis method therefor and application thereof” (NANKAI UNIVERSITY, priority 2019, dated 2026).
“And” between values parts separate entries of the source, which are not always exact repeats. Equal entries are not always repeated.

Assays:
[1] = system: Tetranychus cinnabarinus mite eggs; assay: Activity against mite eggs, dipping method on bean seedling leaves; format: in vivo; conditions: for mortality at 1 µg/mL: read-out: mortality of mite eggs (%), 1 mg/L; for mortality at 10 µg/mL: read-out: mortality of mite eggs (%), 10 mg/L; for mortality at 100 µg/mL: read-out: mortality of mite eggs (%), 100 mg/L; for mortality at 200 µg/mL: read-out: mortality of mite eggs (%), 200 mg/L; for mortality at 0.5 µg/mL: read-out: mortality of mite eggs (%), 0.5 mg/L
Outline: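 Dipping method, three replicates each: leaves carrying 1-day-old mite eggs (24 h laying at 25° C.) immersed 5-6 s in compound solution or additive-only blank. Dead eggs counted 4 days later as percent of eggs treated.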

[2] = system: Tetranychus cinnabarinus mite larvae; assay: Larvicidal activity test, dipping method on bean seedling leaves; format: in vivo; conditions: for mortality at 1 µg/mL / mortality at 10 µg/mL / mortality at 100 µg/mL / mortality at 200 µg/mL / mortality at 0.1 µg/mL / mortality at 0.01 µg/mL / mortality at 0.05 µg/mL / mortality at 0.5 µg/mL: Tetranychus cinnabarinus, 96 h; for mortality at 1 µg/mL: read-out: mortality of mite larvae (%), 1 mg/L; for mortality at 10 µg/mL: read-out: mortality of mite larvae (%), 10 mg/L; for mortality at 100 µg/mL: read-out: mortality of mite larvae (%), 100 mg/L; for mortality at 200 µg/mL: read-out: mortality of mite larvae (%), 200 mg/L; for mortality at 0.1 µg/mL: read-out: mortality of mite larvae (%), 0.1 mg/L; for mortality at 0.01 µg/mL: read-out: mortality of mite larvae (%), 0.01 mg/L; for mortality at 0.05 µg/mL: read-out: mortality of mite larvae (%), 0.05 mg/L; for mortality at 0.5 µg/mL: read-out: mortality of mite larvae (%), 0.5 mg/L
Outline: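 Dipping method: larvae-infested bean seedling leaves were immersed 5–6 s in Tween-containing test solution, with a blank of additives only. Larvae had hatched over 5 days from eggs laid during 24 h at 25° C. Mortality % was counted 4 days later, in triplicate.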

[3] = Tetranychus cinnabarinus, 96 h, checked after 4 days

SMILES	mortality at 1 µg/mL [1, 3] [%]	mortality at 10 µg/mL [1, 3] [%]	mortality at 100 µg/mL [1, 3] [%]	mortality at 200 µg/mL [1, 3] [%]	mortality at 1 µg/mL ([2]; checked after 4 days) [%]	mortality at 10 µg/mL ([2]; checked after 4 days) [%]	mortality at 100 µg/mL ([2]; checked after 4 days) [%]	mortality at 200 µg/mL ([2]; checked after 4 days) [%]	mortality at 0.1 µg/mL ([2]; checked after 4 days) [%]	also measured
O=S(=O)(Oc1ccc(C2COC(c3c(F)cccc3F)=N2)cc1)c1ccc(I)cc1 (stereo not shown) [Compound R3-10]	60	85	100	100	65	88	100	100	–	–
O=S(=O)(Oc1ccc(C2COC(c3c(F)cccc3F)=N2)cc1)c1ccccc1F (stereo not shown) [Compound R3-11]	50	80	95	100	80	90	100	100	50	–
O=S(=O)(Oc1ccc(C2COC(c3c(F)cccc3F)=N2)cc1)c1cccc(F)c1 (stereo not shown) [Compound R3-12]	55	90	100	100	50	90	100	100	–	–
O=S(=O)(Oc1ccc(C2COC(c3c(F)cccc3F)=N2)cc1)c1ccc(C(F)(F)F)cc1 (stereo not shown) [Compound R3-13]	70	90	100	100	80	95	100	100	60	–
O=S(=O)(Oc1ccc(C2COC(c3c(F)cccc3F)=N2)cc1)c1ccc(F)cc1F (stereo not shown) [Compound R3-14]	50	85	90	100	80	95	100	100	60	–
O=S(=O)(Oc1ccc(C2COC(c3c(F)cccc3F)=N2)cc1)c1ccc(F)c(F)c1F (stereo not shown) [Compound R3-15]	65	95	100	100	90	100	100	100	65	–
Cc1ccc(S(=O)(=O)Oc2ccc(C3COC(c4c(F)cccc4F)=N3)cc2)cc1 (stereo not shown) [Compound R3-16]	50	70	92	100	70	85	100	100	–	–
CC(C)(C)c1ccc(S(=O)(=O)Oc2ccc(C3COC(c4c(F)cccc4F)=N3)cc2)cc1 (stereo not shown) [Compound R3-17]	90	96	100	100	95	100	100	100	85	mortality at 0.1 µg/mL ([1]; Tetranychus cinnabarinus, 96 h, read-out: mortality of mite eggs (%), 0.1 mg/L, checked after 4 days): 45%; mortality at 0.5 µg/mL [1, 3]: 78%; acaricidal activity compared with etoxazole ([2]; Tetranychus cinnabarinus eggs and larvae, etoxazole as reference): equivalent or better acaricidal activity compared with etoxazole; mortality at 0.01 µg/mL ([2]; checked after 4 days): 35%; mortality at 0.05 µg/mL ([2]; checked after 4 days): 50%; mortality at 0.5 µg/mL ([2]; checked after 4 days): 90%
O=S(=O)(Oc1ccc(C2COC(c3c(F)cccc3F)=N2)cc1)c1ccc2c(c1)OCCO2 (stereo not shown) [Compound R3-18]	–	50	70	100	50	70	90	100	–	–
O=S(=O)(Oc1ccc(C2COC(c3c(F)cccc3F)=N2)cc1)c1cccc2ccccc12 (stereo not shown) [Compound R3-20]	30	70	80	100	55	80	90	100	–	–
O=S(=O)(Oc1ccc(C2COC(c3c(F)cccc3F)=N2)cc1)c1ccc2ccccc2c1 (stereo not shown) [Compound R3-21]	65	90	95	100	95	100	100	100	65	–
N#Cc1ccc(S(=O)(=O)Oc2ccc(C3COC(c4c(F)cccc4F)=N3)cc2)cc1 (stereo not shown) [Compound R3-22]	45	70	90	100	40	70	95	100	–	–
CCOc1cc(C(C)(C)C)ccc1C1COC(c2c(F)cccc2F)=N1 (stereo not shown) [Etoxazole, reference compound]	70	90	100	100	80	90	100	100	65	mortality of mite eggs (%) ([1]; 0.1 mg/L, checked after 4 days): 60%; mortality of mite eggs (%) ([1]; 0.5 mg/L, checked after 4 days): 60%; mortality of mite eggs (%) ([1]; 10 mg/L, checked after 4 days): 100% and 95%; LC50 ([1]; Tetranychus cinnabarinus, 96 h, read-out: LC50 (against mite eggs), mite eggs, from regression y = ax + b): 0.128 µg/mL; mortality at 0.01 µg/mL ([1]; Tetranychus cinnabarinus, 96 h, read-out: mortality of mite eggs (%), 0.01 mg/L, checked after 4 days): 30%; mortality at 0.05 µg/mL ([1]; Tetranychus cinnabarinus, 96 h, read-out: mortality of mite eggs (%), 0.05 mg/L, checked after 4 days): 30%; mortality at 0.5 µg/mL [1, 3]: 80%; mortality of mite larvae (%) ([2]; 10 mg/L, checked after 4 days): 100%; mortality at 0.01 µg/mL ([2]; checked after 4 days): 30%; mortality at 0.05 µg/mL ([2]; checked after 4 days): 30%; mortality at 0.5 µg/mL ([2]; checked after 4 days): 80%
